{
  "source": "ChEMBL document CHEMBL1155681",
  "about": "“Structure and antibacterial activity ofp6 new labdane diterpenoid from Salvia leriaefolia” (2000)",
  "format_in_all_cases": "functional",
  "key": {"[1]": {"test_system": "Staphylococcus aureus", "experiment": "Antibacterial activity against Staphylococcus aureus ATCC 25923 at 0.4 mM", "details": "read-out: IZ"}, "[2]": {"test_system": "Escherichia coli", "experiment": "Antibacterial activity against Escherichia coli ATCC 25922"}, "[3]": {"test_system": "Pseudomonas aeruginosa", "experiment": "Antibacterial activity against Pseudomonas aeruginosa ATCC 85327"}},
  "data": [
    {"smiles": "C=C/C(C)=C/C[C@H]1C(=C)C[C@H]2OC(=O)[C@@]3(C)CCC[C@@]1(C)[C@@H]23", "values": [
      {"measurement": "zone of inhibition at 400 µM", "setting": "[1]", "value": 20, "unit": "mm"},
      {"measurement": "inhibition zone (IZ)", "setting": "[2]", "value": 13, "unit": "mm"},
      {"measurement": "inhibition zone (IZ)", "setting": "[3]", "value": 12, "unit": "mm"}
    ]}
  ]
}
